The text below walks through data of patent US6368598B1, “Drug complex for treatment of metastatic prostate cancer” (priority 1996, dated 2002).

The conditions of series [1]: after administration to a person; cited from earlier work.
Series [2] concerns human DU-145 prostate carcinoma xenograft. The series is described as follows: Growth delay of human DU-145 prostate carcinoma xenograft in male SCID mice. The series is classed as in vivo. The procedure: Two human prostate carcinoma tumor lines grown as xenografts in male SCID mice are used: the human DU-145 prostate carcinoma which is not androgen dependent and the human LNCaP prostate carcinoma which produces PSA and has a well characterized androgen receptor and response to androgens. The drug complexes are administered up to maximally tolerated doses alone and in conjunction with fractionated radiation therapy (^137Cs Gamma Cell 40) delivered to the tumor bearing limb.
The progress of each tumor is assessed thrice weekly by caliper measurements until the tumors reach 2000 mm^3. Tumor growth delay is calculated as the number of days for each tumor to reach a volume of 500 mm^3 as compared to untreated controls. The efficacy of combination treatments is assessed using isobologram analysis for determination of additivity/synergy.
Male SCID mice bearing the human DU-145 prostate carcinoma Xenograft growing subcutaneously in a hind-limb were treated daily with TG (0.5 mg/kg) by IP injection from day 4-18 post tumor cell implantation. Some animal groups also received fractionated RT locally to the tumor bearing region on days 7-11 or days 7-11 and 14-18.
A general note: In xenograft studies the graft and the host belong to different species.

Series [3] relates to Ca++-ATPase pumps of the endoplasmic reticulum. The conditions noted are these: cited from earlier work.
The test system of the next series is PC3 cells. Kind of series: Effect of TG and RT on clonogenic survival of PC3 cells. The series is classed as cell-based, human. As to conditions: for Surviving Fraction (SF) (PE treated/PE control): plated at 24 hours. The procedure:
PC3 and DU-145 androgen-independent human prostate cancer cell lines obtained from the American Tissue Culture Collection (ATCC) are used for in vitro studies. Cells are grown as monolayer cultures in RPMI 1640 medium supplemented with 10% fetal bovine serum, 2 mM glutamine and antibiotics. Radiation survival curves and radiation-induced apoptotic DNA fragmentation patterns in these cell lines are already established in the laboratory. Cells are treated with this drug, carrier-peptide, or carrier-peptide-drug complex with or without radiation. After 24 hours, the cells are trypsinized and plated for clonogenic survival studies. Apoptotic response to the treatments is determined by: 1) agarose gel electrophoresis analysis of DNA fragmentation at 48 and 72 hours after treatment, 2) morphological observations after staining with DAPI, and 3) terminal deoxytransferase-mediated dUTP Nick End Labeling (TUNEL) assay.

Series [4] has as its system rat and human androgen independent prostate cancer cell lines. As to conditions: 500 nm thapsigargin, cited from earlier work.
For series [5], the system named is pumps of erythrocytes, plasma, or mitochondrial membranes. The conditions noted are these: cited from earlier work.
Series [6] has as its system DU-145 prostate cancer cells. The series is described as follows: Effect of TG and RT on proliferation of DU-145 prostate cancer cells (cell count, trypan blue). The series is classed as cell-based, human. As to conditions: for Total Number of Cells per Dish: counted at 48 hours.
Series [7] is described as follows: Cleavage in pooled human serum. The series is classed as in vitro ADME. The procedure: (§1) A tyrosine tripeptide (compound 1 in FIG. 5) was prepared using methods known to those in the peptide chemistry art. It is known that PSA cleaves its para-nitroanilide (pNA) derivative at the tyrosine site (compound 2 in FIG. 5). (Christensson, A. et al., Eur. J Biochem., 194:755-763 (1990)). It is also known that the “released” pNA makes it possible to study this reaction colormetrically.

A short description of series [8]: Cleavage in newborn calf serum. The series is classed as in vitro ADME. The procedure:
as §1

Residues, ends and D or L forms follow the SMILES beside them. *: point of attachment. pNA = O=[N+]([O-])c1ccc(N*)cc1; MeOSuc = COC(=O)CCC(=O)*

Consider `NCCCCNCCCF` [N-3 fluoropropylputrescine], for which the “distribution to prostate and bone relative to blood and muscle” value in series [1] was “selectively distributed to prostate and bone”.
On to `C/C=C(/C)C(=O)O[C@H]1C(C)=C2[C@H]([C@@H]1OC(=O)CCCCCCC)[C@@](C)(OC(C)=O)C[C@H](OC(=O)CCC)[C@@]1(O)[C@H]2OC(=O)[C@@]1(C)O` [Thapsigargin], for which the “tumor growth delay, combination with RT” value in series [2] (TG 0.5 mg/kg daily IP day 4-18 with fractionated RT days 7-11) was “the independent effects of TG and RT were additive”. Further, the “tumor growth delay, combination with RT extended to 2 weeks” value in series [2] (TG 0.5 mg/kg daily IP day 4-18 with fractionated RT days 7-11 and 14-18) is reported as “the additional benefit of the TG administration was maintained”. Moreover, in [2] (TG 0.5 mg/kg daily IP, day 4-18, alone, FIG. 1), the tumor growth delay entry is “produced a measurable tumor growth delay”. Besides, the “inhibition of Ca++-ATPase pumps of the endoplasmic reticulum” value in series [3] is “specifically inhibits”. Moreover, the “Surviving Fraction (SF) (PE treated/PE control)” value (“Surviving Fraction (SF)” below) in the series with PC3 cells (TG 20 nM, 0 Gy) was found to be 0.69; with PC3 cells (TG 20 nM, 2 Gy), 0.42; with PC3 cells (TG 20 nM, 4 Gy), 0.23; with PC3 cells (TG 50 nM, 0 Gy), 0.80; in the series on PC3 cells (TG 50 nM, 2 Gy), 0.39; in the series on PC3 cells (TG 50 nM, 4 Gy), 0.23. For the same compound, the “Surviving Fraction (SF)” value in the series with PC3 cells (TG 100 nM, 0 Gy) is on record as 0.62; in the series with PC3 cells (TG 100 nM, 2 Gy) it was 0.25; in the series with PC3 cells (TG 100 nM, 4 Gy) it was 0.18; in the series on PC3 cells (TG 200 nM, 0 Gy) it was 0.58; in the series on PC3 cells (TG 200 nM, 2 Gy), 0.25; in the series on PC3 cells (TG 200 nM, 4 Gy), 0.13. Moreover, the “Surviving Fraction (SF)” value came to 0.60 with PC3 cells (TG 400 nM, 0 Gy); 0.25 with PC3 cells (TG 400 nM, 2 Gy); 0.13 in the series with PC3 cells (TG 400 nM, 4 Gy). Besides, the “NET survival (SF/TG toxicity)” value in the series on PC3 cells (TG 20 nM, 2 Gy) is given as 0.61; in the series with PC3 cells (TG 20 nM, 4 Gy) it was 0.33; in the series on PC3 cells (TG 50 nM, 2 Gy), 0.49; in the series with PC3 cells (TG 50 nM, 4 Gy), 0.29; in the series with PC3 cells (TG 100 nM, 2 Gy), 0.40; in the series on PC3 cells (TG 100 nM, 4 Gy), 0.30. In addition, the “NET survival (SF/TG toxicity)” value in the series with PC3 cells (TG 200 nM, 2 Gy) is listed as 0.43; in the series on PC3 cells (TG 200 nM, 4 Gy), 0.22; in the series with PC3 cells (TG 400 nM, 2 Gy), 0.42; with PC3 cells (TG 400 nM, 4 Gy) it was 0.22. Moreover, in the series on PC3 cells (summary of Table 2), the “clonogenic cell survival in vitro (result in words)” value is “inhibits clonogenic cell survival in vitro”. The apoptosis entry in series [4] (within 72 to 96 hours) is given as “undergo apoptosis”. In addition, the clonogenic potential entry in series [4] (within 72 to 96 hours) is on record as “lose their clonogenic potential”. Also, in [4] (lines with or without p53 expression), the “intracellular Ca++” value is given as “elevation of intracellular Ca^++”. For the same compound, the “inhibition of pumps of erythrocytes, plasma, or mitochondrial membranes” value in series [5] is listed as “not”. Moreover, the “Total Number of Cells per Dish” value in series [6] (TG 20 nM, 0 Gy) is 1.0 10^6; in series [6] (TG 20 nM, 2 Gy 2 hours after TG), 0.8 10^6; in series [6] (TG 20 nM, 4 Gy 2 hours after TG), 0.3 10^6; in [6] (TG 20 nM, 8 Gy 2 hours after TG) it was 0.4 10^6; in [6] (TG 100 nM, 0 Gy) it was 0.7 10^6; in series [6] (TG 100 nM, 2 Gy 2 hours after TG), 0.5 10^6. The “Total Number of Cells per Dish” value in series [6] (TG 100 nM, 4 Gy 2 hours after TG) is listed as 0.5 10^6; in series [6] (TG 100 nM, 8 Gy 2 hours after TG), 0.4 10^6; in series [6] (TG 400 nM, 0 Gy) it was 0.7 10^6; in [6] (TG 400 nM, 2 Gy 2 hours after TG), 0.4 10^6; in series [6] (TG 400 nM, 4 Gy 2 hours after TG) it was 0.3 10^6; in [6] (TG 400 nM, 8 Gy 2 hours after TG), 0.3 10^6. Also, the “cell proliferation in vitro (result in words)” value in series [6] (summary of Table 1) is “inhibits cell proliferation in vitro”.
For `COC(=O)CCC(=O)N[C@@H](CCCNC(=N)N)C(=O)N1CCC[C@H]1C(=O)N[C@@H](Cc1ccc(O)cc1)C(=O)Nc1ccc([N+](=O)[O-])cc1` [compound 2] (MeOSuc-Arg-Pro-Tyr-pNA), the “cleavage, release of pNA” value in series [7] is on record as “neither newborn calf serum, nor pooled human serum cleaved”; in series [8], “neither newborn calf serum, nor pooled human serum cleaved”.
